Test results as given in patent publication US12018005B1, “Blarcamesine co-crystals for the manufacture of pharmaceutical dosage form” (EGIS GYÓGYSZERGYÁR ZRT., priority 2023, dated 2024).

How the values were obtained:
Type in all cases: physicochemical
[1] = solubility over the relevant pH range; conditions: entire relevant pH range
[2] = crystal structure after wet grinding; conditions: subjected to wet grinding
[3] = resistance to oxidative stress; conditions: compared with blarcamesine hydrochloric acid salt

Row | Compound | solubility [1] | retention of crystal structure / polymorphic form after wet grinding [2] | resistance to oxidative stress [3]
1 | CN(C)CC1CCOC1(c1ccccc1)c1ccccc1.Cl (racemic) [hydrochloric acid salt, [(2,2-diphenyloxolan-3-yl)methyl]dimethylamine hydrochloride] | extreme solubility | polymorphic form of the hydrochloride salt changes | –
2 | (S)-(−)-blarcamesine hydrochloride, (R)-(+)-blarcamesine hydrochloride, ZnCl2 (1:1:1) co-crystal [ZnCl2 co-crystal] | – | retains its crystal structure | more resistant to oxidative stress than the hydrochloric acid salt
